# Measurements taken from ChEMBL document CHEMBL3885861, “Open TG-GATES”.
# Species on record: Rattus norvegicus
# Experiment: Open TG-GATES - Regimen: Daily Repeat
# Assay type: toxicity, organism-based, Sprague-Dawley
# Set-up: regimen Daily Repeat, gender Male, age 6 weeks
# Conditions: in vivo, po, 30 mg/kg, route gavage, dose level High; for APTT / Bas / Eos / Fbg / Hb / Ht / Lym / MCH / MCHC / Mono / Neu / Plat / RBC / Ret: tissue Blood; for KIDNEY_L / KIDNEY_R / KIDNEY_TOTAL: tissue Kidney; for LIVER: tissue Liver; for ALP / ALT / AST / BUN / CRE / Ca / Cl / DBIL / GLC / IP / K / LDH / Na / PL / RALB / TBIL / TC / TG / TP / gamma-GTP: tissue Plasma
smiles,measurement,setting,value
O=C(CCCN1CCC(O)(c2ccc(Cl)cc2)CC1)c1ccc(F)cc1 [HALOPERIDOL],TERMINAL_BW,"72 h, time 3 day",179.6 g
same,APTT,"72 h, time 3 day",15.7 s
same,Bas,"72 h, time 3 day",0%
same,Eos,"72 h, time 3 day",1%
same,Fbg,"72 h, time 3 day",192.8 mg/dL
same,Hb,"72 h, time 3 day",15.9 g/dL
same,Ht,"72 h, time 3 day",47.3%
same,Lym,"72 h, time 3 day",83.4%
same,MCH,"72 h, time 3 day",21.2 pg
same,MCHC,"72 h, time 3 day",33.6%
same,Mono,"72 h, time 3 day",5%
same,Neu,"72 h, time 3 day",10.6%
same,Plat,"72 h, time 3 day",127.3 x10_4/uL
same,RBC,"72 h, time 3 day",751.8 x10_4/ul
same,Ret,"72 h, time 3 day",2.4%
same,KIDNEY_L,"72 h, time 3 day",0.8 g
same,KIDNEY_R,"72 h, time 3 day",0.9 g
same,KIDNEY_TOTAL,"72 h, time 3 day",1.7 g
same,LIVER,"72 h, time 3 day",7.7 g
same,ALP,"72 h, time 3 day",686.4 IU/L
same,ALT,"72 h, time 3 day",29.4 IU/L
same,AST,"72 h, time 3 day",62 IU/L
same,BUN,"72 h, time 3 day",28.2 mg/dL
same,CRE,"72 h, time 3 day",0.6 mg/dL
same,Ca,"72 h, time 3 day",11.2 mg/dL
same,Cl,"72 h, time 3 day",108.6 meq/L
same,DBIL,"72 h, time 3 day",0.002 mg/dL
same,GLC,"72 h, time 3 day",162.2 mg/dL
same,IP,"72 h, time 3 day",8.5 mg/dL
same,K,"72 h, time 3 day",4.7 meq/L
same,LDH,"72 h, time 3 day",176.8 IU/L
same,Na,"72 h, time 3 day",142.2 meq/L
same,PL,"72 h, time 3 day",159.6 mg/dL
same,RALB,"72 h, time 3 day",4.4 g/dL
same,TBIL,"72 h, time 3 day",0.2 mg/dL
same,TC,"72 h, time 3 day",88.2 mg/dL
same,TG,"72 h, time 3 day",80.8 mg/dL
same,TP,"72 h, time 3 day",6.2 g/dL
same,gamma-GTP,"72 h, time 3 day",1.2 IU/L
same,TERMINAL_BW,"[…], time 7 day",213.8 g
same,TERMINAL_BW,"[…], time 14 day",254.9 g
same,TERMINAL_BW,"[…], time 28 day",329.7 g
same,APTT,"[…], time 7 day",16.7 s
same,Bas,"[…], time 7 day",0%
same,Eos,"[…], time 7 day",0.4%
same,Fbg,"[…], time 7 day",189.6 mg/dL
same,Hb,"[…], time 7 day",15.4 g/dL
same,Ht,"[…], time 7 day",46.2%
same,Lym,"[…], time 7 day",82%
same,MCH,"[…], time 7 day",21 pg
same,MCHC,"[…], time 7 day",33.4%
same,Mono,"[…], time 7 day",6.8%
same,Neu,"[…], time 7 day",10.8%
same,Plat,"[…], time 7 day",89.5 x10_4/uL
same,RBC,"[…], time 7 day",735.6 x10_4/ul
same,Ret,"[…], time 7 day",2.5%
same,APTT,"[…], time 14 day",15.9 s
same,Bas,"[…], time 14 day",0%
same,Eos,"[…], time 14 day",0.4%
same,Fbg,"[…], time 14 day",195.2 mg/dL
same,Hb,"[…], time 14 day",15.4 g/dL
same,Ht,"[…], time 14 day",46.4%
same,Lym,"[…], time 14 day",84.6%
same,MCH,"[…], time 14 day",20 pg
same,MCHC,"[…], time 14 day",33.3%
same,Mono,"[…], time 14 day",3.4%
same,Neu,"[…], time 14 day",11.6%
same,Plat,"[…], time 14 day",94.6 x10_4/uL
same,RBC,"[…], time 14 day",773.4 x10_4/ul
same,Ret,"[…], time 14 day",2.9%
same,APTT,"[…], time 28 day",16.7 s
same,Bas,"[…], time 28 day",0%
same,Eos,"[…], time 28 day",0.6%
same,Fbg,"[…], time 28 day",210.2 mg/dL
same,Hb,"[…], time 28 day",15.2 g/dL
same,Ht,"[…], time 28 day",45.1%
same,Lym,"[…], time 28 day",84.4%
same,MCH,"[…], time 28 day",19.4 pg
same,MCHC,"[…], time 28 day",33.6%
same,Mono,"[…], time 28 day",3.6%
same,Neu,"[…], time 28 day",11.4%
same,Plat,"[…], time 28 day",96.5 x10_4/uL
same,RBC,"[…], time 28 day",782.8 x10_4/ul
same,Ret,"[…], time 28 day",2.6%
same,KIDNEY_L,"[…], time 7 day",0.9 g
same,KIDNEY_R,"[…], time 7 day",0.9 g
same,KIDNEY_TOTAL,"[…], time 7 day",1.8 g
same,KIDNEY_L,"[…], time 14 day",1 g
same,KIDNEY_R,"[…], time 14 day",1.1 g
same,KIDNEY_TOTAL,"[…], time 14 day",2.1 g
same,KIDNEY_L,"[…], time 28 day",1.2 g
same,KIDNEY_R,"[…], time 28 day",1.2 g
same,KIDNEY_TOTAL,"[…], time 28 day",2.4 g
same,LIVER,"[…], time 7 day",10.3 g
same,LIVER,"[…], time 14 day",10.8 g
same,LIVER,"[…], time 28 day",12.8 g
same,ALP,"[…], time 7 day",1009 IU/L
same,ALT,"[…], time 7 day",38.8 IU/L
same,AST,"[…], time 7 day",67.2 IU/L
same,BUN,"[…], time 7 day",25.4 mg/dL
same,CRE,"[…], time 7 day",0.5 mg/dL
same,Ca,"[…], time 7 day",11.8 mg/dL
same,Cl,"[…], time 7 day",106 meq/L
same,DBIL,"[…], time 7 day",0.008 mg/dL
same,GLC,"[…], time 7 day",164.2 mg/dL
same,IP,"[…], time 7 day",7.6 mg/dL
same,K,"[…], time 7 day",4.6 meq/L
same,LDH,"[…], time 7 day",154.4 IU/L
same,Na,"[…], time 7 day",140 meq/L
same,PL,"[…], time 7 day",175.6 mg/dL
same,RALB,"[…], time 7 day",4.1 g/dL
same,TBIL,"[…], time 7 day",0.2 mg/dL
same,TC,"[…], time 7 day",77.6 mg/dL
same,TG,"[…], time 7 day",113.6 mg/dL
same,TP,"[…], time 7 day",6.1 g/dL
same,gamma-GTP,"[…], time 7 day",1.6 IU/L
same,ALP,"[…], time 14 day",689.4 IU/L
same,ALT,"[…], time 14 day",30.2 IU/L
same,AST,"[…], time 14 day",65 IU/L
same,BUN,"[…], time 14 day",24 mg/dL
same,CRE,"[…], time 14 day",0.5 mg/dL
same,Ca,"[…], time 14 day",11 mg/dL
same,Cl,"[…], time 14 day",105.6 meq/L
same,DBIL,"[…], time 14 day",0.012 mg/dL
same,GLC,"[…], time 14 day",179.4 mg/dL
same,IP,"[…], time 14 day",7.8 mg/dL
same,K,"[…], time 14 day",4.7 meq/L
same,LDH,"[…], time 14 day",178.6 IU/L
same,Na,"[…], time 14 day",138.8 meq/L
same,PL,"[…], time 14 day",162.4 mg/dL
same,RALB,"[…], time 14 day",3.9 g/dL
same,TBIL,"[…], time 14 day",0.3 mg/dL
same,TC,"[…], time 14 day",76.2 mg/dL
same,TG,"[…], time 14 day",107.4 mg/dL
same,TP,"[…], time 14 day",6.1 g/dL
same,gamma-GTP,"[…], time 14 day",1.2 IU/L
same,ALP,"[…], time 28 day",528.8 IU/L
same,ALT,"[…], time 28 day",31.6 IU/L
same,AST,"[…], time 28 day",65.4 IU/L
same,BUN,"[…], time 28 day",25.6 mg/dL
same,CRE,"[…], time 28 day",0.5 mg/dL
same,Ca,"[…], time 28 day",11.1 mg/dL
same,Cl,"[…], time 28 day",107 meq/L
same,DBIL,"[…], time 28 day",0.076 mg/dL
same,GLC,"[…], time 28 day",177.8 mg/dL
same,IP,"[…], time 28 day",7.6 mg/dL
same,K,"[…], time 28 day",4.7 meq/L
same,LDH,"[…], time 28 day",138.6 IU/L
same,Na,"[…], time 28 day",140.2 meq/L
same,PL,"[…], time 28 day",148.6 mg/dL
same,RALB,"[…], time 28 day",3.9 g/dL
same,TBIL,"[…], time 28 day",0.2 mg/dL
same,TC,"[…], time 28 day",67 mg/dL
same,TG,"[…], time 28 day",136.8 mg/dL
same,TP,"[…], time 28 day",6.3 g/dL
same,gamma-GTP,"[…], time 28 day",2.2 IU/L
